Results from ChEMBL document CHEMBL1201862, “PubChem BioAssay data set” (2004).
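1) Cells in 96-well plates. 2) Compound, 48 h, 5 concentrations. 3) Linear interpolation between surrounding doses. 4) Unreached endpoint = highest concentration. GI50 = concentration required for 50% inhibition of growth.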 Active and inactive are the calls of the source. Cut-off read from the data, not from the text of the source: active = GI50 up to about 1.1 µM and inactive = higher.

How the values were obtained:
Test in all cases: NCI anticancer screen, dose series, 48 h
[1] = test system: OVCAR-8
[2] = test system: PC-3
[3] = test system: UACC-257
[4] = test system: MDA-N
[5] = test system: TK-10
[6] = test system: K562
[7] = test system: SF-268
[8] = test system: 786-0
[9] = test system: MCF7
[10] = test system: HCC 2998
[11] = test system: RXF 393
[12] = test system: EKVX
[13] = test system: BT-549
[14] = test system: NCI-H522
[15] = test system: CCRF-CEM
[16] = test system: M14
[17] = test system: SNB-19
[18] = test system: NCI-H226
[19] = test system: LOX IMVI
[20] = test system: COLO 205
[21] = test system: UO-31
[22] = test system: DU-145
[23] = test system: SK-OV-3
[24] = test system: MOLT-4
[25] = test system: SN12C
[26] = test system: HOP-92
[27] = test system: SK-MEL-28
[28] = test system: OVCAR-3
[29] = test system: SNB-75
[30] = test system: UACC-62
[31] = test system: HCT-116
[32] = test system: NCI-H23
[33] = test system: SF-295
[34] = test system: HOP-62
[35] = test system: IGROV-1
[36] = test system: MDA-MB-435
[37] = test system: CAKI-1
[38] = test system: RPMI-8226
[39] = test system: Hs-578T
[40] = test system: A549
[41] = test system: HCT-15
[42] = test system: SW-620
[43] = test system: SK-MEL-5
[44] = test system: HL-60
[45] = test system: KM12
[46] = test system: MDA-MB-231
[47] = test system: SF-539
[48] = test system: NCI-H460
[49] = test system: NCI/ADR-RES
[50] = test system: ACHN
[51] = test system: U-251
[52] = test system: SK-MEL-2
[53] = test system: A498
[54] = test system: HT-29
[55] = test system: OVCAR-4
[56] = test system: SR
[57] = test system: Malme-3M
[58] = test system: T47D
[59] = test system: OVCAR-5

Measured: GI50

c1ccc(C[P+]2(c3ccccc3)c3ccccc3-c3ccccc32)cc1
inactive: [1] > 100 µM | [2] > 100 µM | [3] > 100 µM | [4] > 100 µM | [5] > 100 µM | [6] > 100 µM | [7] > 100 µM | [8] > 100 µM | [9] > 100 µM | [10] > 100 µM | [11] > 100 µM | [12] > 100 µM | [13] > 100 µM | [14] > 100 µM | [15] > 100 µM | [16] > 100 µM | [17] > 100 µM | [18] > 100 µM | [19] > 100 µM | [20] > 100 µM | [21] > 100 µM | [22] > 100 µM | [23] > 100 µM | [24] > 100 µM | [25] > 100 µM | [26] > 100 µM | [27] > 100 µM | [28] > 100 µM | [29] > 100 µM | [30] > 100 µM | [31] > 100 µM | [32] > 100 µM | [33] > 100 µM | [34] > 100 µM | [35] > 100 µM | [36] > 100 µM | [37] > 100 µM | [38] > 100 µM | [39] > 100 µM | [40] > 100 µM | [42] > 100 µM | [43] > 100 µM | [44] > 100 µM | [45] > 100 µM | [46] > 100 µM | [47] > 100 µM
> 100 µM: [41]

Cc1nn(C(=O)c2ccccc2O)c2c1C(c1ccco1)SC(=N)N2 (configuration not stated)
3.53 µM: [41]
inactive: [1] 3.61 µM | [2] 3.73 µM | [3] 9.89 µM | [4] 7.4 µM | [48] 4.32 µM | [5] > 10 µM | [6] 2.93 µM | [7] 4.09 µM | [8] 7.01 µM | [49] 3.22 µM | [50] 3.42 µM | [51] 5.28 µM | [11] 7.1 µM | [12] > 10 µM | [13] > 10 µM | [52] > 10 µM | [15] 2.95 µM | [16] 3.5 µM | [17] > 10 µM | [18] 3.43 µM | [53] 6.07 µM | [19] 3.73 µM | [20] 5.83 µM | [21] 5.6 µM | [22] 3.63 µM | [23] 3.3 µM | [24] 3.61 µM | [25] 5.93 µM | [26] 4.59 µM | [27] 6.41 µM | [28] 3.32 µM | [29] 1.45 µM | [30] 2.13 µM | [31] 3.34 µM | [54] > 10 µM | [32] > 10 µM | [55] 3.04 µM | [56] 4.9 µM | [33] > 10 µM | [34] 2.58 µM | [35] 4.42 µM | [36] 7.29 µM | [37] 3.48 µM | [38] 4.43 µM | [39] 6.92 µM | [57] > 10 µM | [40] 4.43 µM | [42] 5.24 µM | [58] 4.83 µM | [44] 4.94 µM | [59] > 10 µM | [45] 5.47 µM | [46] 5.79 µM | [47] 4.28 µM
